What was measured:
PKCθ = PKCθ (Homo sapiens, UniProt Q04759); test: PKCθ Scintiplate Assay; format: biochemical; settings: average value when one or more samples were tested
Method: This assay detects the phosphorylation of a biotinylated substrate by kinase utilizing radiolabeled ATP (ATP γ P33). The enzyme is either recombinant full length PKCθ (Panvera, P2996) or the purified recombinant active kinase domain of full length PKCθ (amino acids 362-706). The substrate in this assay is a biotinylated peptide with a sequence of biotin-[…]-CONH2. The assay buffer is composed of 100 mM Hepes, pH7.5, 2 mM MgCl2, 20 mM β-glycerophosphate and 0.008% TritonX 100. A reaction mixture of ATP, ATP γ P33 (PerkinElmer), DTT, lipid activator, and the enzyme is prepared in the assay buffer and added to a 96 well polypropylene plate. The compound (diluted in DMSO in a separate 96-well polypropylene plate) is added to the reaction mixture and incubated at room temperature. Following the incubation, the peptide substrate is added to the reaction mixture to initiate the enzymatic reaction. The reaction is terminated with the addition of a stop solution (10 mM EDTA, 0.2% TritonX100, and 100 mM NaHPO4) and transferred from the assay plate to a washed streptavidin-coated 96 well scintiplate (PerkinElmer). The scintiplate is incubated at room temperature, washed in PBS with 0.1% TritonX 100, and counted in the 1450 Microbeta Trilux (Wallac, Version 2.60). Counts are recorded for each well as corrected counts per minute (CCPM). The counts are considered corrected because they are adjusted according to a P33 normalization protocol, which corrects for efficiency and background differences between the instrument detectors (software version 4.40.01).

[1] = target: T1, human PKCθ full length enzyme (Homo sapiens, UniProt Q04759); test: PKCθ IMAP Assay; format: biochemical; settings: average value when one or more samples were tested; ATP 6 uM, PKCθ 1 nM
T1 construct: human PKCθ full length enzyme (Panvera Catalog No. P2996); purchased Panvera P2996
Procedure, shortened: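 IMAP fluorescence polarization after 20 min with binding beads measured phosphorylation of 100 nM 5FAM-peptide. Reactions held 1 nM full-length human PKCθ, 6 uM ATP, 5% DMSO and DTT-containing buffer, 25 min at room temperature. Compounds tested as 2:1 serial dilutions; controls lacked ATP or enzyme.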

T1 sequence (Q04759 whole entry): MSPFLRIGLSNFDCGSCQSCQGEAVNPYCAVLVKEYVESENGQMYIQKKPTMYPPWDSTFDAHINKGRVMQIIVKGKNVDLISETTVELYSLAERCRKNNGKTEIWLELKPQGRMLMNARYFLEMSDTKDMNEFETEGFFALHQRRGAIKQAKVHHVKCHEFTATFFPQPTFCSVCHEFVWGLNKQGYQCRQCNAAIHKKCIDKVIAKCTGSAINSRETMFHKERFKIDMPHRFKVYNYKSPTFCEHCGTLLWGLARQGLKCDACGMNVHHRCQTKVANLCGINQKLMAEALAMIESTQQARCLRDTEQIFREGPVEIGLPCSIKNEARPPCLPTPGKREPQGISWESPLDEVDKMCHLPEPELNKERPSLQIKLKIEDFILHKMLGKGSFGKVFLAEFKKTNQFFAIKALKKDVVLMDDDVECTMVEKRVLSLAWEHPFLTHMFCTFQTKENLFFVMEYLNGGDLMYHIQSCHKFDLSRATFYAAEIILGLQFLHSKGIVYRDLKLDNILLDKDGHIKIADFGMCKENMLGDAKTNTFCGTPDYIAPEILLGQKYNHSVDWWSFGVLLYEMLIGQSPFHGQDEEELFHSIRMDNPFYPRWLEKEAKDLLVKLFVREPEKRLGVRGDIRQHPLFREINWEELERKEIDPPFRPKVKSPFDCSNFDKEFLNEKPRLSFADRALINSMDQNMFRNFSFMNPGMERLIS
PKCθ, sequence (Q04759 362-706 limits assumed): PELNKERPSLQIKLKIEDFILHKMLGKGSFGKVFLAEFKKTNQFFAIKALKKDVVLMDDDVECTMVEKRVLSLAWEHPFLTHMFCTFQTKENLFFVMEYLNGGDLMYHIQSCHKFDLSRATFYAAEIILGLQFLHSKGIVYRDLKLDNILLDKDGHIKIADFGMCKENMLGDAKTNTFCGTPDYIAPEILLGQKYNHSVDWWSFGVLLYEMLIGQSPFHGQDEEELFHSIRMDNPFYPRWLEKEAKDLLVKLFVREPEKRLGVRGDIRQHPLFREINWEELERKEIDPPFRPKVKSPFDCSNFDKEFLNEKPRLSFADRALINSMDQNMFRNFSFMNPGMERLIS

Structure (SMILES)	IC50 (PKCθ)	IC50 [1]	melting point
CN1CCN(Cc2ccc(-c3cc4c(NCCc5c[nH]cn5)c(C#N)cnc4s3)cc2)CC1 [Compound 128, 4-{[2-(1H-imidazol-4-yl)ethyl]amino}-2-{4-[(4-methylpiperazin-1-yl)methyl]phenyl}thieno[2,3-b]pyridine-5-carbonitrile]	7300 nM		
Cc1c(Nc2c(C#N)cnc3sc(C#Cc4ccc(N(C)C)nc4)cc23)ccc2[nH]ccc12 [Compound 445, 2-{[6-(dimethylamino)pyridin-3-yl]ethynyl}-4-[(4-methyl-1H-indol-5-yl)amino]thieno[2,3-b]pyridine-5-carbonitrile]		550 nM	> 260 °C
Cc1c(Nc2c(C#N)cnc3sc(C#Cc4coc(CN5CCN(C)CC5)c4)cc23)ccc2[nH]ccc12 [Compound 447, 4-[(4-methyl-1H-indol-5-yl)amino]-2-({5-[(4-methylpiperazin-1-yl)methyl]-3-furyl}ethynyl)thieno[2,3-b]pyridine-5-carbonitrile]		171 nM	216 to 218 °C
Cc1c(Nc2c(C#N)cnc3sc(C#Cc4ccc(CN(C)C)s4)cc23)ccc2[nH]ccc12 [Compound 448, 2-({5-[(dimethylamino)methyl]-2-thienyl}ethynyl)-4-[(4-methyl-1H-indol-5-yl)amino]thieno[2,3-b]pyridine-5-carbonitrile]		83 nM	185 to 187 °C
Cc1c(Nc2c(C#N)cnc3sc(C#Cc4ccc(CN(C)C)o4)cc23)ccc2[nH]ccc12 [Compound 449, 2-({5-[(dimethylamino)methyl]-2-furyl}ethynyl)-4-[(4-methyl-1H-indol-5-yl)amino]thieno[2,3-b]pyridine-5-carbonitrile]		25 nM	218 to 220 °C
Cc1c(Nc2c(C#N)cnc3sc(C#Cc4cncc(C(=O)N(C)C)c4)cc23)ccc2[nH]ccc12 [Compound 451, 5-({5-cyano-4-[(4-methyl-1H-indol-5-yl)amino]thieno[2,3-b]pyridin-2-yl}ethynyl)-N,N-dimethylnicotinamide]		24 nM	> 260 °C
Cc1c(Nc2c(C#N)cnc3sc(C#Cc4cncc(CN(C)C)c4)cc23)ccc2[nH]ccc12 [Compound 452, 2-({5-[(dimethylamino)methyl]pyridin-3-yl}ethynyl)-4-[(4-methyl-1H-indol-5-yl)amino]thieno[2,3-b]pyridine-5-carbonitrile]		18 nM	130 °C (dec.)
Cc1c(Nc2c(C#N)cnc3sc(C#Cc4ccc(CN(C)C)nc4)cc23)ccc2[nH]ccc12 [Compound 453, 2-({6-[(dimethylamino)methyl]pyridin-3-yl}ethynyl)-4-[(4-methyl-1H-indol-5-yl)amino]thieno[2,3-b]pyridine-5-carbonitrile]		60 nM	230 to 232 °C
Cc1c(Nc2c(C#N)cnc3sc(C4=CCN(S(C)(=O)=O)CC4)cc23)ccc2[nH]ccc12 [Compound 475, 4-[(4-methyl-1H-indol-5-yl)amino]-2-[1-(methylsulfonyl)-1,2,3,6-tetrahydropyridin-4-yl]thieno[2,3-b]pyridine-5-carbonitrile]		31 nM	228 °C
Cc1c(Nc2c(C#N)cnc3sc(C4=CCN(C)CC4)cc23)ccc2[nH]ccc12 [Compound 477, 4-[(4-Methyl-1H-indol-5-yl)amino]-2-(1-methyl-1,2,3,6-tetrahydropyridin-4-yl)thieno[2,3-b]pyridine-5-carbonitrile]		41 nM	230 °C
Cc1c(Nc2c(C#N)cnc3scc(C)c23)ccc2[nH]ccc12 [Compound 481, 3-Methyl-4-[(4-methyl-1H-indol-5-yl)amino]thieno[2,3-b]pyridine-5-carbonitrile]		46 nM	261 °C
Cc1c(Nc2c(C#N)cnc3scc(CO)c23)ccc2[nH]ccc12 [Compound 496, 3-(Hydroxymethyl)-4-[(4-methyl-1H-indol-5-yl)amino]thieno[2,3-b]pyridine-5-carbonitrile]		63 nM	230 °C

Continued, values first:

IC50 (PKCθ)	IC50 [1]	melting point	Structure (SMILES)
280 nM			CN1CCN(Cc2ccc(-c3cc4c(Nc5ccc6[nH]ccc6c5)c(C#N)cnc4s3)cc2)CC1 [Compound 104, 4-(1H-indol-5-ylamino)-2-{4-[(4-methylpiperazin-1-yl)methyl]phenyl}thieno[2,3-b]pyridine-5-carbonitrile]
77 nM			CN(C)Cc1ccc(-c2cc3c(Nc4ccc5[nH]ccc5c4)c(C#N)cnc3s2)cc1 [Compound 105, 2-{4-[(dimethylamino)methyl]phenyl}-4-(1H-indol-5-ylamino)thieno[2,3-b]pyridine-5-carbonitrile]
9100 nM			N#Cc1cnc2sc(-c3ccccc3)cc2c1Nc1ccc2[nH]cnc2c1 [Compound 119, 4-(1H-benzimidazol-5-ylamino)-2-phenylthieno[2,3-b]pyridine-5-carbonitrile]
120000 nM			Cc1cc(Nc2c(C#N)cnc3sc(-c4ccccc4)cc23)cc2cc[nH]c12 [Compound 120, 4-[(7-methyl-1H-indol-5-yl)amino]-2-phenylthieno[2,3-b]pyridine-5-carbonitrile]
> 30000 nM			N#Cc1cnc2sc(-c3ccccc3)cc2c1NCc1cccc2[nH]ccc12 [Compound 125, 4-(1H-indol-4-ylmethylamino)-2-phenylthieno[2,3-b]pyridine-5-carbonitrile]
	1690 nM	150 °C (dec.)	N#Cc1cnc2sc(CCc3ccccc3)cc2c1Nc1ccc2[nH]ccc2c1 [Compound 316, 4-(1H-Indol-5-ylamino)-2-(2-phenylethyl)thieno[2,3-b]pyridine-5-carbonitrile]
	125 nM	198 to 200 °C	CN(C)Cc1cccc(-c2cc3c(Nc4ccc5[nH]ccc5c4)c(C#N)cnc3s2)n1 [Compound 443, 2-{6-[(dimethylamino)methyl]pyridin-2-yl}-4-(1H-indol-5-ylamino)thieno[2,3-b]pyridine-5-carbonitrile]
	176 nM	> 250 °C	Cc1c(Nc2c(C#N)cnc3sc(C#Cc4cc(CN(C)C)ccn4)cc23)ccc2[nH]ccc12 [Compound 444, 2-({4-[(dimethylamino)methyl]pyridin-2-yl}ethynyl)-4-[(4-methyl-1H-indol-5-yl)amino]thieno[2,3-b]pyridine-5-carbonitrile]
	67 nM	255 °C	Cc1c(Nc2c(C#N)cnc3sccc23)ccc2[nH]ccc12 [Compound 480, 4-[(4-methyl-1H-indol-5-yl)amino]thieno[2,3-b]pyridine-5-carbonitrile]
	23 nM	182 to 184 °C	Cc1c(Nc2c(C#N)cnc3sc(-c4ccc(OCCN(C)C)cc4)cc23)ccc2[nH]ccc12 [Compound 494, 2-{4-[2-(dimethylamino)ethoxy]phenyl}-4-[(4-methyl-1H-indol-5-yl)amino]thieno[2,3-b]pyridine-5-carbonitrile]
	395 nM	228 °C	N#Cc1cnc2sc(Cl)cc2c1Nc1ccc2[nH]ccc2c1 [Compound 495, 2-chloro-4-(1H-indol-5-ylamino)thieno[2,3-b]pyridine-5-carbonitrile]
	16800 nM	> 245 °C	N#Cc1c[n+]([O-])c2sc(-c3ccccc3)cc2c1Nc1ccc2[nH]ccc2c1 [Compound 500, 4-(1H-indol-5-ylamino)-2-phenylthieno[2,3-b]pyridine-5-carbonitrile 7-oxide]

Source: patent US20070082880A1 (priority 2005, published 2007)
